Source: patent US20250290915A1, “METHOD FOR PREDICTING RESPONSIVENESS TO THERAPY” (CANCERTAIN LIMITED, priority 2022, published 2025)

Columns and labels:
[1] = system: cancer cells derived from the tissue sample of a patient with osteosarcoma; assay: Drug response score assay on tissue sample, Example 10; type: cell-based, human; design: key to Drug response score, conc. 1 / Drug response score, conc. 2 / Drug response score, conc. 3 / Drug response score, conc. 4: normalized drug response metric per Gupta et al. 2020; conditions: for effectiveness on the cancer cells derived from the tissue sample under laboratory conditions / Drug sensitivity as calculated by the assay (interpretation of Drug Response Scores): osteosarcoma tissue sample; for Drug sensitivity as calculated by the assay (interpretation of Drug Response Scores): Table 33; for Drug response score, conc. 1 / Drug response score, conc. 2 / Drug response score, conc. 3 / Drug response score, conc. 4: tissue sample; for Drug response score, conc. 1: conc. 1 per Table 31: Etop 1, DTIC 1.5, Ifos 0.125, Doce 0.02, Irinotecan 5 μg/ml; for Drug response score, conc. 2: conc. 2 per Table 31: Etop 4, DTIC 3, Ifos 0.25, Doce 0.2, Irinotecan 10 μg/ml; for Drug response score, conc. 3: conc. 3 per Table 31: Etop 20, DTIC 6, Ifos 5, Doce 2, Irinotecan 25 μg/ml; for Drug response score, conc. 4: conc. 4 per Table 31: Etop 100, DTIC 12, Ifos 10, Doce 10, Irinotecan 50 μg/ml
Method: Where a tissue sample was provided by each subject, cancer stem cells (CSCs, CD133^+), were isolated from said sample. Tumour marker cells were further isolated from each tissue sample. The remaining cells were designated tumour marker^+ cells.
First, disaggregation of the tissue samples was carried out. Disaggregation was dependent on the size of the tissue sample and the method of retrieval: • EBUS (Endobronchial Ultrasound Scan and Biopsy)—very small fragments of tissue in solution-spun at 1200 rpm for 5 minutes to collect tissue pellet • Bronchoscopy-larger fragments with larger amount of blood vessels • Broncho-lavage-similar to EBUS, spun at 1200 rpm for 5 minutes to collet tissue pellet
Once a pellet of tissue obtained, DMEM added to the tissue pellet and the material forced through a […] Smart strainer. Once a cell suspension was achieved, this was spun at 1200 rpm for 5 minutes and the supernatant removed. The cells were then resuspended to a volume of 60 μl.
20 μl of FcR block and 20 μl of CD133 microbeads were added to the resuspended cells, followed by incubation for 15 minutes at 4° C. The cells were then processed using an AutoMACS machine. This separates the […] into CD133^+ and CD133^− cells in 2 separate falcons. The falcon tubes are then centrifuged at 1200 rpm for 5 minutes.
The supernatant was removed from the CD133+falcon tube, and the cells resuspended in DMEM with 2 μl Cell Tox, 2 μl MT and 2 μl MT. 20 μl of the resuspended […] was then plated in each well which will contain an immunotherapy treatment.
The supernatant was removed from the CD133^− falcon tube, and the CD133^− cells contacted with 40 μl of a tumour separation microbeads cocktail containing microbeads bound to anti-CD31, anti-CD45, anti-Glycophorin-A (Gly-A) and an anti-fibroblast antibody.
This cocktail is used to separate out tumour marker cells using MACS, by separating out CD31^+, CD45^+ and Gly-A^+ cells. In addition, anti-fibroblast antibody-labelled beads are also used. The cocktail is added to the CD133^− falcon tube, followed by incubation for 15 minutes at 4° C. MACS is carried out using an AutoMACS machine. This cells which are not bound by the CD31, CD45, Gly-A and anti-fibroblast antibody beads are the tumour marker^+ cells.
(§1) The different cell types were each divided equally into populations, depending on the number of drugs/concentrations to be tested and plated on a cell-culture plate pre-coated with a scaffold of polycaprolactone (PCL) electrospun fibres and incubated at 37° C., 5% CO2, for 5 to (typically 10) minutes to facilitate cell attachment. After attachment, an initial imaging step was carried out using the RealTime-Glo™ MT assay from Promega (Catalogue No. G9711)) and the CellTox™ Green Cytotoxicity Assay (Promega, Catalogue No. G8741), carried out according to manufacturer's instructions. Following this initial imagining, the immunotherapeutic and/or chemotherapeutic agents were added to the cell populations as indicated below. After 10 minutes, the imagining step was repeated. The cell populations were then incubated at 37° C., 5% CO2 for 48 hours. The imaging step was then repeated. The cell populations were then re-dosed with the same immunotherapeutic and/or chemotherapeutic agents as indicated below, and incubated at 37° C., 5% CO2 for a further 48 hours. After this second 48 hour incubation, the imagining step was repeated for a final time.
At the end of this culture period, dose response scores were calculated using a normalized drug response metric as described in Gupta et al. (Communications Biology volume 3, Article number: 42 (2020), https://doi.org/10.1038/s42003-020-0765-z). The start readout for a given immunotherapeutic or chemotherapeutic agent at a given concentration was the to readout for said immunotherapeutic or chemotherapeutic agent at a specified concentration. […]

[2] = system: Circulating Tumour Cells (CTCs) from a patient with lung cancer (adenocarcinoma); assay: Drug response score assay on CTCs (with CD45+ cells for immunotherapy) from blood, Example 5; type: cell-based, human; conditions: for Drug response score, conc. 1: conc. 1: Niv 20 μg/ml, Gm 2 μg/ml, Vin 20 μg/ml, Gf 100 ng/ml, E 0.75 μg/ml, Afa 20 ng/ml, Metho 0.5 μg/ml, Cz 200 ng/ml, Pal 40 ng/ml (CTCs); for Drug response score, conc. 1 / Drug response score, conc. 2: Pem 20 μg/ml (CTCs + CD45+ cells); for Drug response score, conc. 1 / Drug response score, conc. 2 / Drug response score, conc. 3 / Drug response score, conc. 4: t96h; for Drug response score, conc. 2: conc. 2: Niv 20 μg/ml, Gm 10 μg/ml, Vin 40 μg/ml, Gf 200 ng/ml, E 1.5 μg/ml, Afa 50 ng/ml, Metho 1 μg/ml, Cz 1000 ng/ml, Pal 80 ng/ml (CTCs); for Drug response score, conc. 3: conc. 3: Niv 80 μg/ml, Pem 100 μg/ml (CTCs + CD45+ cells), Gm 20 μg/ml, Vin 80 μg/ml, Gf 600 ng/ml, E 3 μg/ml, Afa 100 ng/ml, Metho 2 μg/ml, Cz 2000 ng/ml, Pal 160 ng/ml (CTCs); for Drug response score, conc. 4: conc. 4: Niv 160 μg/ml, Pem 160 μg/ml (CTCs + CD45+ cells), Gm 40 μg/ml, Vin 200 μg/ml, Gf 1200 ng/ml, E 6 μg/ml, Afa 150 ng/ml, Metho 4 μg/ml, Cz 4000 ng/ml, Pal 320 ng/ml (CTCs); for Drug sensitivity as calculated by the assay (interpretation of Drug Response Scores): Table 17
Method: CD45^+ cells and circulating tumour cells (CTCs) were isolated from a blood sample provided by each subject.
CD45 separation was performed by adding human CD45 microbeads (50 μl/ml blood), incubating for 15 minutes at 4° C. and then processing using an AutoMACS machine. This separates the blood sample into CD45^+ and CD45^−cells in 2 separate falcons. The falcon tubes are then centrifuged at 1200 rpm for 5 minutes.
The supernatant was removed from the CD45^+falcon tube, and the cells resuspended in DMEM with 2 μl Cell Tox, 2 μl MT and 2 μl MT. 20 μl of the resuspended CD45^+ cells was then plated in each well which will contain an immunotherapy treatment.
The supernatant was removed from the CD45^−falcon tube, and the CD45^−cells contacted with 100 μl of FcR block and 100 μl of CD326 (EpCAM) MicroBeads, followed by incubation at […] 4° C. for 30 minutes. The CD45^−cells were then processed using an AutoMACS machine to separate the EpCAM positive and negative cells into 2 separate falcon tubes. The EpCAM-cells were discarded. The supernatant was removed from the EpCAM^+ cells, and the cells resuspended in DMEM with 2 μl Cell Tox, 2 μl MT and 2 μl MT. 20 μl of the resuspended pellet was then added to all sample wells excluding a blank. After all wells are added to, a cell count was conducted on the […] to determine the number of circulating tumour cells (CTCs).
as §1
At the end of this culture period, dose response scores were calculated using a normalized drug response metric as described in Gupta et al. (Communications Biology volume 3, Article number: 42 (2020), https://doi.org/10.1038/s42003-020-0765-z). The start readout for a given immunotherapeutic or chemotherapeutic agent at a given concentration was the to readout for said immunotherapeutic or chemotherapeutic agent at a specified concentration. The end readout for a given immunotherapeutic or chemotherapeutic agent at a given concentration was the final timepoint reading (t96h) for said immunotherapeutic or chemotherapeutic agent at a specified concentration.
The positive control start readout for a given drug/concentration was the to readout for the corresponding drug at a specified concentration. The positive control end readout for the corresponding drug at a specified concentration was the final timepoint reading (t96h) for the corresponding blank well.
The negative control start and end readouts for a given immunotherapeutic or chemotherapeutic agent at a given concentration were the to and final timepoint reading (t96h) respectively for blank cell or blank immuno cell well respectively.
The sensitivity or resistance of a subject's cancer to a given immunotherapeutic or chemotherapeutic agent was determined based on the calculated drug response score as shown in Table 2. […]

Row | Molecule | effectiveness on the cancer cells derived from the tissue sample under laboratory conditions [1] | Drug sensitivity as calculated by the assay (interpretation of Drug Response Scores) [1] | Drug response score, conc. 1 [1] | Drug response score, conc. 2 [1] | Drug response score, conc. 3 [1] | Drug response score, conc. 4 [1] | Drug response score, conc. 1 [2] | Drug response score, conc. 2 [2] | Drug response score, conc. 3 [2] | Drug response score, conc. 4 [2] | effectiveness on Circulating Tumour Cells (CTCs) under laboratory conditions ([2]; lung cancer CTCs) | Drug sensitivity as calculated by the assay (interpretation of Drug Response Scores) ([2]; lung cancer CTCs)
1 | CC(=O)O[C@@]12CO[C@@H]1C[C@H](O)[C@@]1(C)C(=O)[C@H](O)C3=C(C)[C@@H](OC(=O)[C@H](O)[C@@H](NC(=O)OC(C)(C)C)c4ccccc4)C[C@@](O)([C@@H](OC(=O)c4ccccc4)[C@H]21)C3(C)C [Docetaxel] | resistant | Resistant | −0.5113 | 1.0268 | 0.6693 | −0.6056 |  |  |  |  |  | 
2 | COc1cc([C@@H]2c3cc4c(cc3[C@@H](O[C@@H]3O[C@@H]5CO[C@@H](C)O[C@H]5[C@H](O)[C@H]3O)[C@H]3COC(=O)[C@H]23)OCO4)cc(OC)c1O [Etoposide] | show effectiveness | Sensitive (S+) | 0.4829 | 0.0653 | −0.4472 | 0.0955 |  |  |  |  |  | 
3 | O=P1(NCCCl)OCCCN1CCCl (centres unmarked) [Ifosfamide] | show effectiveness | Sensitive (S+) | 0.3183 | 0.8776 | 0.1237 | −0.8671 |  |  |  |  |  | 
4 | Nivolumab |  |  |  |  |  |  | −0.45 | −0.80 | −0.12 | −0.22 | more effective than Pembrozulimab | S++
5 | Pembrolizumab |  |  |  |  |  |  | −0.34 | −0.15 | 0.05 | 0.24 |  | S++
